Experimental data reported in patent publication US20070123533A1, “New process for preparing an optically pure 2-morpholinol derivative” (SMITHKLINE BEECHAM CORPORATION, priority 2003, published 2007).
In brackets after ≈: the same amount, converted by molar mass.

Key:
[1] = Solubility of the racemate in the chromatography eluent; type: physicochemical; settings: organic solvent or mixture
Excerpt: The selectivity obtained has a strong influence on process productivity. As illustrated in Example 3 below the addition of isopropanol to the acetonitrile mobile phase increased the selectivity over two-fold. The process productivity is almost proportional to [formula] but other parameters also have to be considered to select the best chromatographic conditions. The process is also influenced by the retention of the compounds, with tests showing the retention to be maximal at 2-3% isopropanol. However the solubility of the racemate is shown to increase with increasing isopropanol content allowing a more concentrated feed to be injected. […] Also from the standpoint of process operation robustness, since MCC involves continuous operation it is important to avoid any precipitation effects which could halt the system. Using a mobile phase containing isopropanol reduces the likelihood of precipitation occurring and is advantageous over a MCC system operating purely in 100% acetonitrile in which racemate feed and isolated enantiomers are less soluble. […]

[2] = Racemization of the pure enantiomer in heated solvents, optical purity followed over time; type: physicochemical; settings: for Final OP (%): about 60-65° C. under reflux, starting OP >99.8%, about 20 g/L
Procedure: Pure (+)-(2S,3S)-2-(3-chlorophenyl)-3,5,5-trimethyl-2-morpholinol was tested with various solvents in order to optimize the racemization. Specifically, about 2 g of pure enantiomer ((+)(2S,3S)-2-(3-chlorophenyl)-3,5,5-trimethyl-2-morpholinol) were dissolved into 100 ml (total concentration of about 20 g/L) of solvent (see various solvents below) and heated up to about 60-65° C. under stirring (under reflux). The solution was sampled periodically in order to follow the kinetics of racemization.
Table 11 illustrates the Optical Purity of the racemization of the enantiomer in various solvents or solvent mixtures: […]

| Final OP (%) ([2]; Acetonitrile/IPA (95/5), 20 hours) | Final OP (%) ([2]; Isopropanol, 20 hours) | Final OP (%) ([2]; Methanol, 2 hours) | Final OP (%) ([2]; Methanol/HCl, 2 hours) | Final OP (%) ([2]; Water/HCl, 2 hours) | racemization (in words) ([2]; acidic aqueous solvent) | racemization conversion ([2]; methanol, after 2 hours) [%] | racemization conversion ([2]; pure isopropanol, after 20 hours) [%] | Compound | solubility ([1]; in acetonitrile/isopropanol 95/5 mixture) [mg/mL] | solubility ([1]; in pure acetonitrile) [mg/mL] |
| --- | --- | --- | --- | --- | --- | --- | --- | --- | --- | --- |
| – | – | – | – | – | – | – | – | C[C@H]1NC(C)(C)CO[C@]1(O)c1cccc(Cl)c1 (racemic) [racemate, (+/−)-(2R*, 3R*)-2-(3-chlorophenyl)-3,5,5-trimethyl-2-morpholinol] | 30 (≈ 117 mM) | 22.5 (≈ 88 mM) |
| 92.8 | 84.8 | 95.3 | 97.4 | >99.8 | No racemization is observed | 10 | 30 | C[C@@H]1NC(C)(C)CO[C@@]1(O)c1cccc(Cl)c1 [(+)-(2S,3S)-2-(3-chlorophenyl)-3,5,5-trimethyl-2-morpholinol] | – | – |
